Assay results as given in US5246940A, “Substituted N-biphenylyl lactams” (Ortho Pharmaceutical Corporation, priority 1993, dated 1993).
Counter-ions that a name gives are not always drawn. Like-named read-outs stand apart in the source and are kept apart here.

Tests used:
Angiotensin Receptor [1] = test: Screening Potential Angiotensin Receptor Antagonists in Salt-Depleted Normotensive Rats (blood pressure after oral dosing); type: in vivo, Sprague-Dawley rats
[2] = test system: plasma renin activity (PRA); test: Plasma renin activity by Radioimmuno Assay of Angiotensin I in salt-depleted rats; type: in vivo, Sprague-Dawley rats; details: salt-depleted animals; about 7.4 after salt depletion before treatment
Experimental: Method: Male 350-450 g Sprague-Dawley rats are implanted with teflon microcannulae via the middle caudal artery under 20 mg/kg intravenous brevital anesthesia and permitted a 4-7 day surgical recovery period. Throughout recovery and testing animals are individually housed unrestrained in standard rat metabolism cages and receive continuous 0.5 mL/hour intra-arterial 0.25 N saline infusion through a spring-shielded swivelling tether connected to an infusion/blood pressure recording system to maintain arterial cannula patency. Animals are maintained on Low Sodium (0.03%) Pruina Rat Chow #5881 throughout the study. […] Three hours after the second furosemide dose, rats are given test compound uniformly suspended in 1% methylcellulose (n=3/dose level) or 1 mL 1% methylcellulose vehicle (n=3) orally by gavage and blood pressure is continuously recorded for 24 h using a Buxco computerized data recording system. […]
Interpretation: Prior to salt depletion, normotensive rats typically show a plasma renin activity (PRA), measured by Radioimmuno Assay (RIA) of Angiotensin I (as ng Angiotensin I/mL plasma/hour) and yields a RIA of 0.7. […]

Angiotensin Receptor [3] = test: Screening Potential Angiotensin Receptor Antagonists in Salt-Depleted Normotensive Rats (blood pressure after oral dosing); type: in vivo, Sprague-Dawley rats; details: for Antihypertensive Activity (p.o.): active @ dose: oral, salt-depleted normotensive rats, active = MAP decrease of 10 or more mmHg vs concurrent control
Text: Test Procedure for Screening Potenital Angiotensin Receptor Antagonists in Salt-Depleted Normotensive Rats
Purpose: This test is designed to detect hypotensive effects of a compound after oral dosing in normotensive animals made renin-dependent by salt depletion. [Wong, P. C., Price, W. A., Chiu, A. T., Duncia, J. V., Carini, D. J., Wexler, R. R., Johnson, A. L., and Timmermans, P. B. M. W. M.: Nonpeptide angiotensin II receptor antagonists. VIII. […] J. Pharmacol. Exp. Ther., 252,726 (1990)]
Solution Preparation: Oral 50 mg/kg furosemide doses are prepared from 10 mg/mL solutions of the intravenous pharmaceutical preparation (Lasix injection, Hoechst-Roussel Pharmaceutical). Test compound is uniformly suspended in 1% methylcellulose.
Method: Male 350-450 g Sprague-Dawley rats are implanted with teflon microcannulae via the middle caudal artery under 20 mg/kg intravenous brevital anesthesia and permitted a 4-7 day surgical recovery period. Throughout recovery and testing animals are individually housed unrestrained in standard rat metabolism cages and receive continuous 0.5 mL/hour intra-arterial 0.25 N saline infusion through a spring-shielded swivelling tether connected to an infusion/blood pressure recording system to maintain arterial cannula patency. Animals are maintained on Low Sodium (0.03%) Pruina Rat Chow #5881 throughout the study. After the recovery period animals are given oral 50 mg/kg furosemide (Lasix, Hoechst-Roussel Pharmaceutical) doses on two consecutive days to produce marked diuresis and plasma volume depletion that makes maintenance of normal blood pressure highly dependent on function of the renin-angiotensin-aldosteronesystem. Three hours after the second furosemide dose, rats are given test compound uniformly suspended in 1% methylcellulose (n=3/dose level) or 1 mL 1% methylcellulose vehicle (n=3) orally by gavage and blood pressure is continuously recorded for 24 h using a Buxco computerized data recording system. Compound-induced changes in blood pressure are compared to concurrent vehicle control blood pressures in order to detect drug effect.
Interpretation: Prior to salt depletion, normotensive rats typically show a plasma renin activity (PRA), measured by Radioimmuno Assay (RIA) of Angiotensin I (as ng Angiotensin I/mL plasma/hour) and yields a RIA of 0.7. After the salt-depletion protocol PRA values taken 3 hour after the furosemide dose have risen to about 7.4. […] PRA is increased by this DuP-753 treatment to about 41.4.
Compounds that decrease blood pressure 10 or more mmHg (MAP) compared to concurrent control after oral dosing are considered active in this test. Maximum possible response is about-35 mmHg. See results in Table 2.

[4] = target: T1, angiotensin II-induced vasoconstriction (Oryctolagus cuniculus, UniProt P34976); test: Inhibition of Angiotensin II Dose-Response in Rabbit Thoracic Aorta; design: from tissue; host or cells: thoracic aorta rings of New Zealand white rabbits; species or system New Zealand white rabbits; details: for inhibition at 10 µM: read-out: % Inh @ 10^-5 M; for EC90: contraction, 95% C.L. in brackets
T1 sequence (P34976 1-359): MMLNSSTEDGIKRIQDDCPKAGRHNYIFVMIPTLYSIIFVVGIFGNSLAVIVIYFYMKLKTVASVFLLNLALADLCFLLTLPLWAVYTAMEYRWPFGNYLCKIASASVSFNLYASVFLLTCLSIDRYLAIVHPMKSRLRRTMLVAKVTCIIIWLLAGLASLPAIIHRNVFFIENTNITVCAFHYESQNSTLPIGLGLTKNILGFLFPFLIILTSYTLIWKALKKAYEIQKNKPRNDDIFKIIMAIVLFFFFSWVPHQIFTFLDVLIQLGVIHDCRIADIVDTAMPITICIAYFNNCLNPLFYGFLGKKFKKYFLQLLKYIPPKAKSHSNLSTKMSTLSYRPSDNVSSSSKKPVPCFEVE
Experimental: VII. Cellular and Biochemical pharmacology of DuP 753, an orally active antihypertensive agent. J. Pharmacol. Exp. Ther., 252, 726 (1990)]
Test compounds are diluted in dimethylsulfoxide vehicle such that a 50 μL addition to the tissue bath produces a final bath concentration of 1×10^-5 M compound in Krebs-bicarbonate buffer (baths contain 15 mL Krebs-bicarbonate buffer).
Procedure: 1.8 to 2.3 kg New Zealand white rabbits are sacrificed with an intravenous sodium pentobarbital overdose and the thoracic aorta gently dissected free from the aortic root to the level of the diaphragm, into ice cold Krebs bicarbonate buffer. The aorta is gently freed of clots and adventitia and cleanly cut into 5 mm segments. Each ring is suspended from a Gould isotonic force transducer in a tissue bath containing 15 mL oxygenated Krebs bicarbonate buffer regulated at 37° C. Initial tenison is adjusted to 4.0 g and equilibrated over three 20-minute wash periods with fresh Krebs-bicarbonate buffer to achieve a baseline tension of 3.0 g. […] […] […] In addition, since the test compounds are dissolved in DMSO, DMSO alone is tested in two rings as a vehicle control in each screening experiment.

[5] = target: T1, angiotensin II-induced vasoconstriction; test: Angiotensin II Antagonist Dose-Response in Rabbit Thoracic Aorta (Schild plot); design: from tissue; host or cells: thoracic aorta rings of New Zealand white rabbits; species or system New Zealand white rabbits; details: for Kb: read-out: pA2 (converted)
Text: Angiotensin II Antagonist Dose-Response in Rabbit Thoracic Aorta Purpose: […] [Chiu, […]., Price, W. A., Wong, […]., Duncia, […]., Yoo, S. E., Johnson, A. L., and […].: Nonpeptide angiotensin II receptor antagonists. VII. Cellular and Biochemical pharmacology of […], an orally active antihypertensive agent. J. Pharmacol. Exp. Ther., 252,726 (1990)]. Solution Preparation: […] For each test an aliquot is freshly thawed and serially diluted with Krebs bicarbonate buffer to provide stock solutions of angiotensin II in buffer for addition to the tissue baths. […] Procedure: 1.8 to 2.3 kg New Zealand white rabbits are sacrificed with an intravenous sodium pentobarbital overdose and the thoracic aorta gently dissected free from the aortic root to the level of the diaphragm, into ice cold Krebs bicarbonate buffer. The aorta is gently freed of clots and adventitia and cleanly cut into 5 mm segments. Each ring is suspended from a Gould isotonic force transducer in a tissue bath containing 15 mL oxygenated Krebs bicarbonate buffer regulated at 37° C. […] The test compound is then given to separate rings at different antagonist concentrations (n=2 rings/test concentration) in order to asses antagonist dose-response. The angiotensin II cumulative dose-response is then repeated in the presence of the test compound. Analysis: Angiotensin II vasoconstrictor tension in grams is expressed as a percent of maximal contraction for the before and after test compound angiotensin II dose-responses. […] See results in Table 2.

Row | Compound | inhibition at 10 µM [4] [%] | Antihypertensive Activity (p.o.): active @ dose (Angiotensin Receptor [3]) [mpk] | Kb [5] [nM] | also measured
1 | CCCCc1nc(Cl)c(CO)n1Cc1ccc(-c2ccccc2-c2nn[nH]n2)cc1 [DuP-753] | – | – | – | blood pressure response in normotensive rats that have not been salt-depleted (Angiotensin Receptor [1]): does not change; plasma renin activity (PRA) after treatment [2]: about 41.4 ng Angiotensin I/mL plasma/hour; blood pressure decrease (mean arterial pressure, MAP) (Angiotensin Receptor [3]; salt-depleted animals, typical response): about 35 mmHg
2 | CCOC(=O)C=C1N(Cc2ccc(-c3ccccc3-c3nnn[nH]3)cc2)C(=O)CC12CCCCC2 [ac, 5-Carbethoxymethyliden-4-spirocyclohexyl-1-[4-(2-tetrazolophenyl)benzyl]pyrrolidin-2-one Pyridinium Salt,1.2 Hydrate] | 100 | 30 | – | pA2 ([5]; Schild plot vs angiotensin II, rabbit thoracic aorta rings): 7.93
3 | CCOC(=O)C=C1N(Cc2ccc(-c3ccccc3-c3nnn[nH]3)cc2)C(=O)CC12CCCCCC2 [ad, 5-Carbethoxymethylidine-4-spirocycloheptyl-1-[4-(2-tetrazolophenyl)benzyl]pyrrolidin-2-one Pyridinium Salt, 1.3 Hydrate] | 100 | 30 | 4.37 | –
4 | CCOC(=O)C=C1CC(C)(CC)CC(=O)N1Cc1ccc(-c2ccccc2-c2nnn[nH]2)cc1 (stereo not drawn) [ae, 6-Carbethoxymethyliden-4-ethyl-4-methyl-1-[4-(2-tetrazolophenyl)benzyl]piperidine-2-one Pyridinium Salt, 1.25 Hydrate] | 100 | 10 | 1.07 | –
5 | CCOC(=O)C=C1N(Cc2ccc(-c3ccccc3-c3nnn[nH]3)cc2)C(=O)CC12CCCC2 [af, 5-Carbethoxymethylidine-4-spirocyclopentyl-1-[4-(2-tetrazolophenyl)benzyl]pyrrolidin-5-one Pyridinium Salt, 1.4 Hydrate] | 100 | 30 | 3.63 | –
6 | CCOC(=O)C=C1C2C3CCCC(CC3)C2C(=O)N1Cc1ccc(-c2ccccc2-c2nnn[nH]2)cc1 (stereo not drawn) [ag, 3-Carbethoxymethyliden-2-[4-(2-tetrazolophenyl)benzyl]-4,7-endopropylen-1,3,4,5,6,7-hexahydro-1-oxoisoindole Dihydrate] | 100 | 30 | – | –
7 | CCOC(=O)C=C1C2C3C=CC(CCC3)C2C(=O)N1Cc1ccc(-c2ccccc2-c2nnn[nH]2)cc1 (stereo not drawn) [ah, 3-Carbethoxymethyliden-2-[4-(2-tetrazolophenyl)benzyl]-4,7-endopropylen-1,3,4,7-tetrahydro-1-oxoisoindole Pyridinium Salt, 1.75 Hydrate] | 100 | > 30 | 14.1 | –
8 | CCOC(=O)C=C1C2C3C=CC(C3)C2C(=O)N1Cc1ccc(-c2ccccc2C(=O)OC)cc1 (stereo not drawn) [m, 3-Carbethoxymethyliden-2-[4-(2-carbomethoxyphenyl)benzyl]-4,7-endomethylen-1,3,4,7-tetrahydro-1-oxoisoindole] | 0 | – | – | –
9 | CCOC(=O)C=C1C2C3C=CC(CC3)C2C(=O)N1Cc1ccc(-c2ccccc2C#N)cc1 (stereo not drawn) [p, 3-Carbethoxymethyliden-2-[4-(2-cyanophenyl)benzyl]-4,7-endoethylen-1,3,4,7-tetrahydro-1-oxoisoindole] | 3 | – | – | –
10 | CCOC(=O)C=C1CC(C)(C)CC(=O)N1Cc1ccc(-c2ccccc2-c2nnn[nH]2)cc1 [s, 6-Carbethoxymethyliden-4,4-dimethyl-1-[4-(2-tetrazolophenyl)benzyl]piperidin-2-one Pyridinium salt] | 100 | 30 | 39.8 | –
11 | CCOC(=O)C=C1CC2(CCCC2)CC(=O)N1Cc1ccc(-c2ccccc2-c2nnn[nH]2)cc1 [t, 6-Carbethoxymethyliden-4-spirocyclopentyl-1-[4-(2-tetrazolophenyl)benzyl]piperidin-2-one Pyridinium Salt] | 100 | 30 | 14.1 | –
12 | CCOC(=O)C=C1C2C3C=CC(CC3)C2C(=O)N1Cc1ccc(-c2ccccc2-c2nnn[nH]2)cc1 (stereo not drawn) [u, 3-Carbethoxymethyliden-2-[4-(2-tetrazolophenyl)benzyl]-4,7-endoethylen-1,3,4,7-tetrahydro-1-oxoisoindole] | 99 | 30 | 6.92 | –
13 | CCOC(=O)C=C1C2C3C=CC(C3)C2C(=O)N1Cc1ccc(-c2ccccc2-c2nnn[nH]2)cc1 (stereo not drawn) [v, 3-Carbethoxymethyliden-2-[4-(2-tetrazolophenyl)benzyl]-4,7-endomethylen-1,3,4,7-tetrahydro-1-oxoisoindole Pyridinium Salt] | 100 | – | 4.47 | –
14 | CCOC(=O)C=C1C2C3CCC(C3)C2C(=O)N1Cc1ccc(-c2ccccc2C(=O)OC)cc1 (stereo not drawn) [y, 3-Carbethoxymethyliden-2-[4-(2-carbomethoxyphenyl)benzyl]-4,7-endomethylen-1,3,4,5,6,7-hexahydro-1-oxoisoindole] | 0 | – | – | –
15 | CCOC(=O)C=C1C2C3CCC(C3)C2C(=O)N1Cc1ccc(-c2ccccc2-c2nnn[nH]2)cc1 (stereo not drawn) [z, 3-Carbethoxymethyliden-2-[4-2-(tetrazolophenyl)benzyl]-4,7-endomethylen-1,3,4,5,6,7-hexahydro-1-oxoisoindole] | 100 | 30 | 1.05 | –
16 | angiotensin II [reference compound] | – | – | – | EC90 ([4]; read-out: Mean ED90 for angiotensin II after DMSO vehicle treatment, after DMSO vehicle): 5.88 nM; EC90 ([4]; read-out: Mean ED90 for angiotensin II before DMSO vehicle treatment, before DMSO vehicle): 4.44 nM
